Measurements as given in US8642352B2, “Methods and systems for detection of stoichiometry by Förster resonance energy transfer” (California Institute of Technology, priority 2009, dated 2014).

Tests used:
ADNFLE α4β2 receptors = system: ADNFLE α4β2 receptors
Experimental: The data on comparative stoichiometry from acceptor photobleach FRET, pixel-based FRET, and FIR measurements obtained from the experiments exemplified in the above examples and in the related figures can be summarized. In particular data gathered for the various subunit transfection ratios, various mutants, and various labeling strategies were analyzed by the relation in FIG. 3D or by Equations 13 and 14, as appropriate.
The effects of nicotine can also be summarized; in each case, the experiment compared incubation vs. saline.

α4β2 receptors = α4β2 receptors (Mus musculus, UniProt O70174+Q9ERK7)
Description: Cells were transfected with membrane-targeted mCherry, α4GFP, and unlabeled β2. Left panels, mCherry; middle panels, α4GFP; right panels, overlay. […] Scale bars, 5 μm.
All results from microscopy analysis will be correlated to receptor function using whole cell electrophysiology.

α4β2 V287L nAChR [1] = target: T1, α4β2 V287L nAChR (Mus musculus, UniProt O70174+Q9ERK7, V287L)
Experimental: (§1) In the experimental procedures illustrated in the present disclosure N2a cells were cultured at 37° C. in 95% air, 5% CO2 in medium composed of 44.5% DMEM, 44.5% OptiMEM1, 5% FBS, 100 I.U./ml penicillin and 100 μg/ml streptomycin. For all experiments, cells were plated onto poly-d-lysine coated 35 mm culture dishes with 14 mm glass bottoms. Transfections were performed using a modification of the manufacturer's Lipofectamine and Plus reagent protocol, resulting in non-saturated expression levels of nAChRs (Imoukhuede et al., 2009; Moss et al., 2009; Son et al., 2009). Nicotine at 1 μM final concentration was added to the appropriate dishes (nicotine was replenished with each media change).
(§2) N2a cells were visualized at room temperature in extracellular buffer, 48 h after transfection. A series of lambda stack X-Y images were collected with the Eclipse C1si laser scanning confocal microscope according to procedures exemplified in Example 5. Dequenching of CFP fluorescence during incremental photobleaching of YFP was performed and analyzed as previously described (Nashmi et al., 2003; Drenan et al., 2008). FRET efficiency (E) was calculated according to (Equation 1).
(§3) IDA represents the normalized fluorescence intensity of the donor (100%) in the presence of non-bleached acceptor. ID represents the normalized fluorescence intensity of the donor following 100% photobleach of the acceptor. The ID value was extrapolated from a scatter plot of the percentage increase of donor intensity versus the percentage decrease of acceptor intensity for each cell (Nashmi et al., 2003).
(§4) A series of experiments were carried out with WT nAChR and ADFLE mutated nAChR were performed using image acquisition by FRET acceptor photobleach to detect nAChR stoichiometry before and after contact with nicotine.

WT α4β2 nAChRs = WT α4β2 nAChRs (Mus musculus, UniProt O70174+Q9ERK7)
Experimental: as §1, §2, §3, §4

α4β2 nAChRs [2] = target: T2, α4β2 nAChRs (Mus musculus, UniProt O70174+Q9ERK7); details: α4:β2 cDNA ratio 1:1, exposed to nicotine, N2a cells
Experimental: as §1

α4β2 nAChRs [3] = target: α4β2 nAChRs (Homo sapiens, UniProt P17787+P43681); details: α4:β2 cDNA ratio 1:1, nicotine; Nelson et al., 2003; cited from earlier work
α4β2 V287L nAChR [4] = target: T1, α4β2 V287L nAChR; details: 1 μM nicotine for 48 h
Description: (§5) Live cells were imaged using the Eclipse C1si laser scanning confocal microscope according to procedures exemplified in Example 5. Full emission spectra images are acquired in 5 nm bins between 450 nm and 610 nm, linearly unmixed using reference spectra from samples expressing solely the donor- or acceptor-tagged fusion constructs to unambiguously separate the donor and acceptor signal from each pixel of the spectral images.
(§6) Live cells are imaged using the Eclipse C1si laser scanning confocal microscope. Full emission spectra images are acquired in 5 nm bins between 450 nm and 610 nm, linearly unmixed using reference spectra from samples expressing solely the donor- or acceptor-tagged fusion constructs to unambiguously separate the donor and acceptor signal from each pixel of the spectral images. Transfections of cells expressing only the donor- or acceptor-tagged fusion protein are performed for every imaging session to control for pixel saturation and spectral bleedthrough (SBT). Where appropriate, non-fluorescent subunit cDNAs are included in the transfection to ensure the faithful expression and subcellular localization of the single fluorescent species. Control samples expressing only the donor-fused constructs are imaged with the appropriate laser line and unmixed with acceptor and donor emission spectra. The unmixed acceptor images are termed the FRETd channel, and the fluorescence intensity of each pixel is termed (IFRETd). The donor fluorophore images are the “Donor” channel and pixel intensities are described by Idonor. A montage of all the FRETd channel images and a second montage of all the Donor channel images are assembled and compiled into an image stack called the “Donor SBT stack” in the order FRETd channel, Donor channel.
(§7) Two spectral images of each cell expressing only the acceptor-fused constructs are acquired, the first excited by the donor specific laser line and the second with the acceptor specific laser line. The acceptor fluorophore signal is unmixed from each image.

α4 S248F β2 nAChR = α4 S248F β2 nAChR (Mus musculus, UniProt O70174+Q9ERK7, S282F); details: α4 subunits carrying S248F and XFP, nicotine 1 μM, 48 h
Description: as §5, §6, §7

α4β2 nAChRs [5] = target: T2, α4β2 nAChRs
Experimental: as §6, §7

T1 sequence (O70174 31-629): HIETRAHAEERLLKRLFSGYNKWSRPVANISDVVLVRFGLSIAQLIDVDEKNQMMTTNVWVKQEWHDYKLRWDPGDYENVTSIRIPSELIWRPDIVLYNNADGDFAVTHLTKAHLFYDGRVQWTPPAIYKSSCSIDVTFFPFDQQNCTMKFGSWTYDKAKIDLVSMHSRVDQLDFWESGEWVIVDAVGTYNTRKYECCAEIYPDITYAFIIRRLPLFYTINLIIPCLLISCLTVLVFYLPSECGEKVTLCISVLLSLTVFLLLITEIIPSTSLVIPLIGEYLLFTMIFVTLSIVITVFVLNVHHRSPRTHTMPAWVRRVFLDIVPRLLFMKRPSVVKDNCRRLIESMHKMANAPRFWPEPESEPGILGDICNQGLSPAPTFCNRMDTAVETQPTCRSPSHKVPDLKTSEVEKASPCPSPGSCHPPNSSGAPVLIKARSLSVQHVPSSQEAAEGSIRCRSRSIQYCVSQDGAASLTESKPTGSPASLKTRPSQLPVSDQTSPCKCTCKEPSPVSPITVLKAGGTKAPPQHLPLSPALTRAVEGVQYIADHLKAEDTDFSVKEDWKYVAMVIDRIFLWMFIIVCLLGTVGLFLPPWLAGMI
T1 sequence (Q9ERK7 26-501 V287L): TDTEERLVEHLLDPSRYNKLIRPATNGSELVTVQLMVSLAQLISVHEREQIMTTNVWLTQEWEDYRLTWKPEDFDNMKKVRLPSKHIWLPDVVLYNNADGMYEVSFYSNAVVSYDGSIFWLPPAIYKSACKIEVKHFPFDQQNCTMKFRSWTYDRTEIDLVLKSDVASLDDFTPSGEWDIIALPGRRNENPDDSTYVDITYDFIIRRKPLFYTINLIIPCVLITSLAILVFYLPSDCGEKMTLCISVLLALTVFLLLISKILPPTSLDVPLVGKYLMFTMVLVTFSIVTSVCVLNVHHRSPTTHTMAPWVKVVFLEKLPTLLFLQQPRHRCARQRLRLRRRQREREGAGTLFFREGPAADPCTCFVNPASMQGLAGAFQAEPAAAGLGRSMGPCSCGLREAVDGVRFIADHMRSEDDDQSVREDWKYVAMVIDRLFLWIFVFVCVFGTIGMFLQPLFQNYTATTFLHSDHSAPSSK
T2 sequence (O70174 31-629): as the sequence (O70174 31-629) above
T2 sequence (Q9ERK7 26-501): as the sequence (Q9ERK7 26-501 V287L) above, with L262V counted along it
Sequence of α4β2 receptors (O70174 31-629): as the sequence (O70174 31-629) above
Sequence of α4β2 receptors (Q9ERK7 26-501): as the sequence (Q9ERK7 26-501 V287L) above, with L262V counted along it
Sequence of WT α4β2 nAChRs (O70174 31-629): as the sequence (O70174 31-629) above
Sequence of WT α4β2 nAChRs (Q9ERK7 26-501): as the sequence (Q9ERK7 26-501 V287L) above, with L262V counted along it
Sequence of α4 S248F β2 nAChR (O70174 31-629 S282F): as the sequence (O70174 31-629) above, with S252F counted along it
Sequence of α4 S248F β2 nAChR (Q9ERK7 26-501): as the sequence (Q9ERK7 26-501 V287L) above, with L262V counted along it
Sequence of α4β2 nAChRs (Homo sapiens, UniProt P17787+P43681) (P43681 29-627 limits assumed): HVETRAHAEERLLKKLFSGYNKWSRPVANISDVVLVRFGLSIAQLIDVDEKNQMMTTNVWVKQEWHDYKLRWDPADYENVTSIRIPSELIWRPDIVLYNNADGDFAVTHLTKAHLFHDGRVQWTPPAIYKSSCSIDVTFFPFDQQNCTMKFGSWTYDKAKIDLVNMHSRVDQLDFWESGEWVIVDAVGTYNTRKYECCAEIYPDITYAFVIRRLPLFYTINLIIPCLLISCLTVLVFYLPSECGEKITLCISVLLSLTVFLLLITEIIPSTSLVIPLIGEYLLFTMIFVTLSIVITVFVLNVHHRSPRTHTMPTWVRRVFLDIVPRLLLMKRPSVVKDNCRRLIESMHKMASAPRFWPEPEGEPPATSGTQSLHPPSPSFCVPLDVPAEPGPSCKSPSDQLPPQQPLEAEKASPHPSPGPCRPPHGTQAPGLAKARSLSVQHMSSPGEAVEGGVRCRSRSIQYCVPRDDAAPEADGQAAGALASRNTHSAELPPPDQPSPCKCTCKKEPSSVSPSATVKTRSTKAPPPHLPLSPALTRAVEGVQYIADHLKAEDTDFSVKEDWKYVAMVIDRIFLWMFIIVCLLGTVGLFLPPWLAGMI
Sequence of α4β2 nAChRs (Homo sapiens, UniProt P17787+P43681) (P17787 26-502): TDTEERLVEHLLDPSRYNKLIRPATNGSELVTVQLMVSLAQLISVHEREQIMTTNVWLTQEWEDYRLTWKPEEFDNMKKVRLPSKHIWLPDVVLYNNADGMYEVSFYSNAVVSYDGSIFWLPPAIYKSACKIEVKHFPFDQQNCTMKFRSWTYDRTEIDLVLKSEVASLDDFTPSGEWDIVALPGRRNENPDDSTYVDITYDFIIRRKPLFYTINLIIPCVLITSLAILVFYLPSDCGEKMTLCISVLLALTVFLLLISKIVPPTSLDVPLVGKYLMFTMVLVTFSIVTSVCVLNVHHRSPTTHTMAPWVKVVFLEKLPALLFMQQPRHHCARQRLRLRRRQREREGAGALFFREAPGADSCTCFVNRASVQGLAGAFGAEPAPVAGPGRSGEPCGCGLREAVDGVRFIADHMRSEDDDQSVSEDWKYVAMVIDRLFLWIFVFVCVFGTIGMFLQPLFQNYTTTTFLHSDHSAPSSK

CN1CCCC1c1cccnc1 (centres unmarked) [Nicotine, nicotine]
Percentage of (α4)3(β2)2 ADNFLE receptors after nicotine incubation relative to saline incubation (ADNFLE α4β2 receptors; at least five experiments): 0.8 | Ratio nicotine/saline of percentage of (α4)3(β2)2 ADNFLE receptors, all cases (ADNFLE α4β2 receptors; each of at least five experiments): < 1 | Upregulation at the plasma membrane by TIRFM (α4β2 receptors; 4 h of 1 μM nicotine exposure): sufficient to cause upregulation at the plasma membrane | α4GFP fluorescence in TIRF images (α4β2 receptors; incubation for 48 h in nicotine, α4GFP plus unlabeled β2): much brighter | FRET efficiency of nicotine-treated versus unexposed cells (α4β2 V287L nAChR [1]; cells transfected with α4XFP β2 V287L): lower FRET efficiency | FRET efficiency after incubation in nicotine compared to control cells (α4β2 V287L nAChR [1]; cells transfected with α4 and β2 V287L XFP subunits): significantly higher | Shift in stoichiometry in the presence of nicotine (α4β2 V287L nAChR [1]; β2 V287L ADNFLE mutation): shift in stoichiometry towards (α4)2(β2)3 | Shift of WT receptor stoichiometry on incubation in nicotine (WT α4β2 nAChRs; 1:1 cDNA α4XFP:β2 or α4:β2XFP, nicotine 1 μM): shifts the receptor population toward the (α4)2(β2)3 stoichiometry | Percent of (α4)3(β2)2 for WT nAChRs, FRET (WT α4β2 nAChRs; α4:β2 cDNA ratio 1:1, exposed to nicotine, N2a cells): 61 ± 6% | Percent of (α4)3(β2)2 for WT nAChRs, FIR (α4β2 nAChRs [2]): 73% | Percent of (α4)3(β2)2 for WT nAChRs, Reported (α4β2 nAChRs [3]): 68 ± 5% | α4 intersubunit FRET efficiency (α4β2 V287L nAChR [4]; α4XFP plus β2V287L): completely back to WT levels | Mean β2 intersubunit FRET efficiency (α4β2 V287L nAChR [4]; α4 plus β2(V287L)XFP): increased to a level even higher than the control cells | Shift of receptor population stoichiometry (α4 S248F β2 nAChR): shifted the population toward the (α4)2(β2)3 stoichiometry | Receptor population in the Golgi (α4β2 nAChRs [5]; trans-Golgi ROI (GalT-CFP), 1 μM nicotine, 4 h post-exposure): pure (α4)2(β2)3 receptor population | Duration of the stoichiometry switch post nicotine exposure (α4β2 nAChRs [5]; whole cell NFRET): at least 24 h | Receptor population expressing the high-sensitivity (α4)2(β2)3 stoichiometry (α4β2 nAChRs [5]; whole cell NFRET distribution, 4 h exposure to a saturating dose (1 μM) of nicotine): 80%
